pIC50: −log10 of the molar value.
Experiments:
Assay in all cases: cells
COR-L88 = format: functional, cell-based, Homo sapiens; conditions: Homo sapiens, COR-L88;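 further: growth inhibition of COR-L88 cells, read out with a cell viability assay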
Description: SANGER: Inhibition of human COR-L88 cell growth in a cell viability assay.

CTB-1 = format: functional, cell-based, Homo sapiens; conditions: Homo sapiens, CTB-1
Description: SANGER: Inhibition of human CTB-1 cell growth in a cell viability assay.

CW-2 = format: functional, cell-based, Homo sapiens; conditions: Homo sapiens, CW-2;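 further: growth inhibition of CW-2 cells, read out by a cell viability assay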
Description: SANGER: Inhibition of human CW-2 cell growth in a cell viability assay.

DMS-79 = format: functional, cell-based, Homo sapiens; conditions: Homo sapiens, DMS-79;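 further: growth inhibition measured with a cell viability assay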
Description: SANGER: Inhibition of human DMS-79 cell growth in a cell viability assay.

DSH1 = format: functional, cell-based, Homo sapiens; conditions: Homo sapiens, DSH1;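 further: growth inhibition of human DSH1 cells, measured with a cell viability readout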
Description: SANGER: Inhibition of human DSH1 cell growth in a cell viability assay.

ES3 = format: functional, cell-based, Homo sapiens; conditions: Homo sapiens, ES3;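 further: growth inhibition of ES3 cells, read out with a cell viability assay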
Description: SANGER: Inhibition of human ES3 cell growth in a cell viability assay.

EW-11 = format: functional, cell-based, Homo sapiens; conditions: Homo sapiens, EW-11;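 further: growth inhibition of human EW-11 cells, measured with a cell viability assay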
Description: SANGER: Inhibition of human EW-11 cell growth in a cell viability assay.

EW-13 = format: functional, cell-based, Homo sapiens; conditions: Homo sapiens, EW-13;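 further: growth inhibition of EW-13 cells, read out with a cell viability assay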
Description: SANGER: Inhibition of human EW-13 cell growth in a cell viability assay.

GAK = format: functional, cell-based, Homo sapiens; conditions: Homo sapiens, GAK;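 further: cell growth inhibition read out by a cell viability assay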
Description: SANGER: Inhibition of human GAK cell growth in a cell viability assay.

HAL-01 = format: functional, cell-based, Homo sapiens; conditions: Homo sapiens, HAL-01;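 further: growth inhibition of human HAL-01 cells, read out with a cell viability assay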
Description: SANGER: Inhibition of human HAL-01 cell growth in a cell viability assay.

HCC 2998 = format: functional, cell-based, Homo sapiens; conditions: Homo sapiens, HCC 2998;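 further: growth inhibition of human HCC2998 cells, measured with a cell viability read-out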
Description: SANGER: Inhibition of human HCC2998 cell growth in a cell viability assay.

HD-MY-Z = format: functional, cell-based, Homo sapiens; conditions: Homo sapiens, HD-MY-Z;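 further: growth inhibition of HD-MY-Z cells, read out with a cell viability assay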
Description: SANGER: Inhibition of human HD-MY-Z cell growth in a cell viability assay.

HH = format: functional, cell-based, Homo sapiens; conditions: Homo sapiens, HH
Description: SANGER: Inhibition of human HH cell growth in a cell viability assay.

HL-60 = format: functional, cell-based, Homo sapiens; conditions: Homo sapiens, HL-60;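 further: growth inhibition of human HL-60 cells, read out with a cell viability assay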
Description: SANGER: Inhibition of human HL-60 cell growth in a cell viability assay.

JAR = format: functional, cell-based, Homo sapiens; conditions: Homo sapiens, JAR;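 further: growth inhibition of human JAR cells determined with a cell viability assay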
Description: SANGER: Inhibition of human JAR cell growth in a cell viability assay.

K562 = format: functional, cell-based, Homo sapiens; conditions: Homo sapiens, K562
Description: SANGER: Inhibition of human K-562 cell growth in a cell viability assay.

KM12 = format: functional, cell-based, Homo sapiens; conditions: Homo sapiens, KM12;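 further: KM12 cell growth inhibition, read out with a cell viability assay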
Description: SANGER: Inhibition of human KM12 cell growth in a cell viability assay.

KMOE-2 = format: functional, cell-based, Homo sapiens; conditions: Homo sapiens, KMOE-2;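 further: growth inhibition of human KMOE-2 cells, read out with a cell viability assay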
Description: SANGER: Inhibition of human KMOE-2 cell growth in a cell viability assay.

KU812 cell line = format: functional, cell-based, Homo sapiens; conditions: Homo sapiens, KU812;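 further: growth inhibition of KU812 cells, read out with a cell viability assay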
Description: SANGER: Inhibition of human KU812 cell growth in a cell viability assay.

KURAMOCHI = format: functional, cell-based, Homo sapiens; conditions: Homo sapiens, KURAMOCHI;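 further: growth inhibition of KURAMOCHI cells, read out with a cell viability assay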
Description: SANGER: Inhibition of human KURAMOCHI cell growth in a cell viability assay.

LAMA-84 = format: functional, cell-based, Homo sapiens; conditions: Homo sapiens, LAMA-84;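 further: growth inhibition of LAMA-84 cells, read out with a cell viability assay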
Description: SANGER: Inhibition of human LAMA-84 cell growth in a cell viability assay.

LC-2-ad = format: functional, cell-based, Homo sapiens; conditions: Homo sapiens, LC-2-ad;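 further: growth inhibition of human LC-2-ad cells, read out with a cell viability assay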
Description: SANGER: Inhibition of human LC-2-ad cell growth in a cell viability assay.

LS-123 = format: functional, cell-based, Homo sapiens; conditions: Homo sapiens, LS-123
Description: SANGER: Inhibition of human LS-123 cell growth in a cell viability assay.

LS-513 = format: functional, cell-based, Homo sapiens; conditions: Homo sapiens, LS-513
Description: SANGER: Inhibition of human LS-513 cell growth in a cell viability assay.

MC116 = format: functional, cell-based, Homo sapiens; conditions: Homo sapiens, MC116;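 further: growth inhibition of MC116 cells, read out with a cell viability assay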
Description: SANGER: Inhibition of human MC116 cell growth in a cell viability assay.

MFM-223 = format: functional, cell-based, Homo sapiens; conditions: Homo sapiens, MFM-223
Description: SANGER: Inhibition of human MFM-223 cell growth in a cell viability assay.

MLMA = format: functional, cell-based, Homo sapiens; conditions: Homo sapiens, MLMA;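 further: growth inhibition of MLMA cells (human), determined through a cell viability readout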
Description: SANGER: Inhibition of human MLMA cell growth in a cell viability assay.

MS-1 = format: functional, cell-based, Homo sapiens; conditions: Homo sapiens, MS-1;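 further: growth inhibition of MS-1 cells, read out by cell viability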
Description: SANGER: Inhibition of human MS-1 cell growth in a cell viability assay.

NB17 = format: functional, cell-based, Homo sapiens; conditions: Homo sapiens, NB17;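 further: growth inhibition of NB17 cells, read out with a cell viability assay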
Description: SANGER: Inhibition of human NB17 cell growth in a cell viability assay.

NCI-H1092 = format: functional, cell-based, Homo sapiens; conditions: Homo sapiens, NCI-H1092;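 further: cell growth inhibition measured with a cell viability assay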
Description: SANGER: Inhibition of human NCI-H1092 cell growth in a cell viability assay.

NCI-H69 = format: functional, cell-based, Homo sapiens; conditions: Homo sapiens, NCI-H69;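 further: growth inhibition of the cell line, read out with a cell viability assay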
Description: SANGER: Inhibition of human NCI-H69 cell growth in a cell viability assay.

NH-12 = format: functional, cell-based, Homo sapiens; conditions: Homo sapiens, NH-12;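 further: growth inhibition of NH-12 cells, read out with a cell viability assay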
Description: SANGER: Inhibition of human NH-12 cell growth in a cell viability assay.

OCUB-M = format: functional, cell-based, Homo sapiens; conditions: Homo sapiens, OCUB-M;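 further: growth inhibition of the cancer cell line, read out through a cell viability assay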
Description: SANGER: Inhibition of human OCUB-M cell growth in a cell viability assay.

ONS-76 = format: functional, cell-based, Homo sapiens; conditions: Homo sapiens, ONS-76;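 further: growth inhibition of human ONS-76 cells, read out with a cell viability assay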
Description: SANGER: Inhibition of human ONS-76 cell growth in a cell viability assay.

OS-RC-2 = format: functional, cell-based, Homo sapiens; conditions: Homo sapiens, OS-RC-2;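 further: growth inhibition of human OS-RC-2 cells, measured by a cell viability assay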
Description: SANGER: Inhibition of human OS-RC-2 cell growth in a cell viability assay.

P30-OHK = format: functional, cell-based, Homo sapiens; conditions: Homo sapiens, P30-OHK;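 further: growth inhibition of the P30-OHK cell line, read out with a cell viability assay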
Description: SANGER: Inhibition of human P30-OHK cell growth in a cell viability assay.

QIMR-WIL = format: functional, cell-based, Homo sapiens; conditions: Homo sapiens, QIMR-WIL;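 further: growth inhibition of QIMR-WIL cells, read out with a cell viability assay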
Description: SANGER: Inhibition of human QIMR-WIL cell growth in a cell viability assay.

SBC-1 = format: functional, cell-based, Homo sapiens; conditions: Homo sapiens, SBC-1;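 further: cell viability assay measuring growth inhibition of the SBC-1 cell line, IC50 being the concentration that halves growth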
Description: SANGER: Inhibition of human SBC-1 cell growth in a cell viability assay.

SK-MEL-2 = format: functional, cell-based, Homo sapiens; conditions: Homo sapiens, SK-MEL-2;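 further: growth inhibition of human SK-MEL-2 cells measured with a cell viability assay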
Description: SANGER: Inhibition of human SK-MEL-2 cell growth in a cell viability assay.

SK-UT-1 = format: functional, cell-based, Homo sapiens; conditions: Homo sapiens, SK-UT-1;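 further: growth inhibition of SK-UT-1 cells, measured by a cell viability assay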
Description: SANGER: Inhibition of human SK-UT-1 cell growth in a cell viability assay.

8-MG-BA = format: functional, cell-based, Homo sapiens; conditions: Homo sapiens, 8-MG-BA;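 further: growth inhibition of 8-MG-BA cells, read out with a cell viability assay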
Description: SANGER: Inhibition of human 8-MG-BA cell growth in a cell viability assay.

A388 = format: functional, cell-based, Homo sapiens; conditions: Homo sapiens, A388;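 further: growth inhibition of human A388 cells, read out with a cell viability assay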
Description: SANGER: Inhibition of human A388 cell growth in a cell viability assay.

TGBC1TKB = format: functional, cell-based, Homo sapiens; conditions: Homo sapiens, TGBC1TKB;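 further: growth inhibition of TGBC1TKB cells, read out by a cell viability assay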
Description: SANGER: Inhibition of human TGBC1TKB cell growth in a cell viability assay.

TGW = format: functional, cell-based, Homo sapiens; conditions: Homo sapiens, TGW;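 further: growth inhibition of human TGW cells, read out with a cell viability assay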
Description: SANGER: Inhibition of human TGW cell growth in a cell viability assay.

U-87 MG = format: functional, cell-based, Homo sapiens, U-87MG ATCC; conditions: Homo sapiens, U-87 MG;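 further: growth inhibition of the cells measured with a viability assay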
Description: SANGER: Inhibition of human U-87-MG cell growth in a cell viability assay.

CGTH-W-1 = format: functional, cell-based, Homo sapiens; conditions: Homo sapiens, CGTH-W-1;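 further: growth inhibition of human CGTH-W-1 cells measured by cell viability assay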
Description: SANGER: Inhibition of human CGTH-W-1 cell growth in a cell viability assay.

COLO-668 = format: functional, cell-based, Homo sapiens; conditions: Homo sapiens, COLO-668
Description: SANGER: Inhibition of human COLO-668 cell growth in a cell viability assay.

Question: Which results are given for COc1cc2ncn(-c3cc(OCc4ccccc4S(C)(=O)=O)c(C#N)s3)c2cc1OC [GSK-319347A]?
Answer: pIC50 (COR-L88): < 5.30; pIC50 (CTB-1): < 5.30; pIC50 (CW-2): < 5.30; pIC50 (DMS-79): < 5.30; pIC50 (DSH1): < 5.30; pIC50 (ES3): < 5.30; pIC50 (EW-11): < 5.30; pIC50 (EW-13): < 5.30; pIC50 (GAK): < 5.30; pIC50 (HAL-01): < 5.30; pIC50 (HCC 2998): < 5.30; pIC50 (HD-MY-Z): < 5.30; pIC50 (HH): < 5.30; pIC50 (HL-60): < 5.30; pIC50 (JAR): < 5.30; pIC50 (K562): < 5.30; pIC50 (KM12): < 5.30; pIC50 (KMOE-2): < 5.30; pIC50 (KU812 cell line): < 5.30; pIC50 (KURAMOCHI): < 5.30; pIC50 (LAMA-84): < 5.30; pIC50 (LC-2-ad): < 5.30; pIC50 (LS-123): < 5.30; pIC50 (LS-513): < 5.30; pIC50 (MC116): < 5.30; pIC50 (MFM-223): < 5.30; pIC50 (MLMA): < 5.30; pIC50 (MS-1): < 5.30; pIC50 (NB17): < 5.30; pIC50 (NCI-H1092): < 5.30; pIC50 (NCI-H69): < 5.30; pIC50 (NH-12): < 5.30; pIC50 (OCUB-M): < 5.30; pIC50 (ONS-76): < 5.30; pIC50 (OS-RC-2): < 5.30; pIC50 (P30-OHK): < 5.30; pIC50 (QIMR-WIL): < 5.30; pIC50 (SBC-1): < 5.30; pIC50 (SK-MEL-2): < 5.30; pIC50 (SK-UT-1): < 5.30; pIC50 (8-MG-BA): < 5.30; pIC50 (A388): < 5.30; pIC50 (TGBC1TKB): < 5.30; pIC50 (TGW): < 5.30; pIC50 (U-87 MG): < 5.30; pIC50 (CGTH-W-1): < 5.30; pIC50 (COLO-668): < 5.30

Question: Which results are given for CC[C@H](CO)Nc1nc(NCc2ccccc2)c2ncn(C(C)C)c2n1 [SELICICLIB]?
Answer: pIC50 (COR-L88): < 4.80; pIC50 (CTB-1): < 4.80; pIC50 (CW-2): < 4.80; pIC50 (DMS-79): < 4.80; pIC50 (DSH1): < 4.80; pIC50 (ES3): < 4.80; pIC50 (EW-11): < 4.80; pIC50 (EW-13): < 4.80; pIC50 (HAL-01): < 4.80; pIC50 (HCC 2998): < 4.80; pIC50 (HD-MY-Z): < 4.80; pIC50 (HH): < 4.80; pIC50 (HL-60): < 4.80; pIC50 (JAR): < 4.80; pIC50 (K562): < 4.80; pIC50 (KM12): < 4.80; pIC50 (KMOE-2): < 4.80; pIC50 (KU812 cell line): < 4.80; pIC50 (LAMA-84): < 4.80; pIC50 (LC-2-ad): < 4.80; pIC50 (LS-123): < 4.80; pIC50 (LS-513): < 4.80; pIC50 (MC116): < 4.80; pIC50 (MFM-223): < 4.80; pIC50 (MLMA): < 4.80; pIC50 (MS-1): < 4.80; pIC50 (NB17): < 4.80; pIC50 (NCI-H1092): < 4.80; pIC50 (NCI-H69): < 4.80; pIC50 (NH-12): < 4.80; pIC50 (OCUB-M): < 4.80; pIC50 (ONS-76): < 4.80; pIC50 (OS-RC-2): 4.80; pIC50 (P30-OHK): < 4.80; pIC50 (QIMR-WIL): < 4.80; pIC50 (SBC-1): < 4.80; pIC50 (SK-MEL-2): < 4.80; pIC50 (SK-UT-1): 4.99; pIC50 (8-MG-BA): < 4.80; pIC50 (A388): < 4.80; pIC50 (TGBC1TKB): < 4.80; pIC50 (TGW): < 4.80; pIC50 (U-87 MG): < 4.80; pIC50 (CGTH-W-1): < 4.80; pIC50 (COLO-668): < 4.80
